Measurements: article PMC3551932, “STK295900, a Dual Inhibitor of Topoisomerase 1 and 2, Induces G2 Arrest in the Absence of DNA Damage” (PLoS ONE, 2013)
pIC50: −log10 of the molar value.

Experiments:
[1] = system: cancer (HeLa, MCF7, HepG2, and HT-29) and non-cancerous cell lines (hTERT RPE-1, 267B1, and MRC5CV1); experiment: Cell growth inhibition assay, cancer and non-cancerous cell lines compared; assay type: cell-based, human; details: cancer (HeLa, MCF7, HepG2, HT-29) vs non-cancer (hTERT RPE-1, 267B1, MRC5CV1)
Source text: (§1) Human epitheloid cervical carcinoma HeLa cells, human breast adenocarcinoma MCF7 and MDA-MB-231cells, human hepatocellular carcinoma HepG2 cells, human colon adenocarcinoma HT-29 cells, and human colorectal carcinoma HCT-116 cells were purchased from ATCC® and maintained in DMEM medium. Human prostate carcinoma PC-3 cells (purchased from ATCC®), human gastric carcinoma SNU-484 and SNU-601(obtained from Korean Cell Line Bank (KCLB)), human leukemia K-562 and HL-60 cells (purchased from ATCC®), immortalized human prostate epithelial 267B1cells, and immortalized human embryonic lung fibroblast MRC5CV1 cells were maintained in RPMI 1640 medium whereas immortalized retinal pigment epithelial hTERT RPE-1 cells (purchased from ATCC®) were maintained in DMEM/F12 medium. All cell lines were cultured in media supplemented with 10% fetal bovine serum, 100 U/ml penicillin, and […] streptomycin at 37°C in a 5% CO2 incubator.
(§2) Cells were seeded at the appropriate amount (1–2×10^3 cells) in triplicate in 96-well plates for 24 h and then treated with various concentrations of STK295900. Cell growth was determined by using EZ-CyTox cell viability assay kit (Daeil Lab. Service, Seoul, Korea). Ten microliters of WST solution were added to the treated cells at 24, 48, 72, and 96 h. Cells were further incubated at 37°C for 2 h and the absorbance was measured at 450 nm.

HepG2 cells = experiment: Cell growth inhibition assay, HepG2; assay type: cell-based, human; details: Homo sapiens, HepG2, 96 h, growth up to 4 days
Source text: as §1, §2

SNU-484 cells = experiment: Cell growth inhibition assay, SNU-484; assay type: cell-based; details: Homo sapiens, 96 h; Table 1; SNU-484, gastric carcinoma; growth up to 4 days
Source text: as §1, §2

HeLa cells [2] = experiment: Mitotic index (Hoechst 33342 staining, mitotic cells counted); assay type: cell-based, human; details: various concentrations, 24 h
Source text: Given its strong growth inhibitory effect on various cancer cell types, STK295900 was examined to determine its effect on cell cycle distribution using flow cytometry analysis. […] We then analyzed whether the increasing G2/M population in Fig. 2A is indeed G2 or M phase by determining the mitotic index and investigating the cell cycle regulatory proteins. To determine mitotic index, the treated cells were stained with Hoechst 33342 and then mitotic cells were counted. […] (A) Flow cytometric analysis for cell cycle distribution. HeLa cells were treated with the indicated concentrations of STK295900 for 24 h. Treated cells were then stained with propidium iodide (PI) and processed for cell cycle analysis. The bar graph represents the mean percentage of each cell cycle phase ± SD from three independent experiments. * = p<0.05 versus the respective G1, S, or G2/M phase of DMSO-treated cells. […] HeLa cells were treated with the indicated concentrations of STK295900 for 24 h. Cells were then stained with Hoechst 33342 and mitotic cells were counted. […] (C) Cell cycle related proteins expression.

MDA-MB-231 cells = experiment: Cell growth inhibition assay, MDA-MB-231; assay type: cell-based; details: Homo sapiens, 96 h; Table 1; MDA-MB-231, breast adenocarcinoma; growth up to 4 days
Source text: as §1, §2

human topoisomerase 2α = human topoisomerase 2α (Homo sapiens, UniProt P11388); experiment: Supercoiled DNA relaxation assay for topoisomerase 2α; assay type: biochemical; details: pBR322, 37°C, 30 min
Chain of human topoisomerase 2α (P11388 whole entry): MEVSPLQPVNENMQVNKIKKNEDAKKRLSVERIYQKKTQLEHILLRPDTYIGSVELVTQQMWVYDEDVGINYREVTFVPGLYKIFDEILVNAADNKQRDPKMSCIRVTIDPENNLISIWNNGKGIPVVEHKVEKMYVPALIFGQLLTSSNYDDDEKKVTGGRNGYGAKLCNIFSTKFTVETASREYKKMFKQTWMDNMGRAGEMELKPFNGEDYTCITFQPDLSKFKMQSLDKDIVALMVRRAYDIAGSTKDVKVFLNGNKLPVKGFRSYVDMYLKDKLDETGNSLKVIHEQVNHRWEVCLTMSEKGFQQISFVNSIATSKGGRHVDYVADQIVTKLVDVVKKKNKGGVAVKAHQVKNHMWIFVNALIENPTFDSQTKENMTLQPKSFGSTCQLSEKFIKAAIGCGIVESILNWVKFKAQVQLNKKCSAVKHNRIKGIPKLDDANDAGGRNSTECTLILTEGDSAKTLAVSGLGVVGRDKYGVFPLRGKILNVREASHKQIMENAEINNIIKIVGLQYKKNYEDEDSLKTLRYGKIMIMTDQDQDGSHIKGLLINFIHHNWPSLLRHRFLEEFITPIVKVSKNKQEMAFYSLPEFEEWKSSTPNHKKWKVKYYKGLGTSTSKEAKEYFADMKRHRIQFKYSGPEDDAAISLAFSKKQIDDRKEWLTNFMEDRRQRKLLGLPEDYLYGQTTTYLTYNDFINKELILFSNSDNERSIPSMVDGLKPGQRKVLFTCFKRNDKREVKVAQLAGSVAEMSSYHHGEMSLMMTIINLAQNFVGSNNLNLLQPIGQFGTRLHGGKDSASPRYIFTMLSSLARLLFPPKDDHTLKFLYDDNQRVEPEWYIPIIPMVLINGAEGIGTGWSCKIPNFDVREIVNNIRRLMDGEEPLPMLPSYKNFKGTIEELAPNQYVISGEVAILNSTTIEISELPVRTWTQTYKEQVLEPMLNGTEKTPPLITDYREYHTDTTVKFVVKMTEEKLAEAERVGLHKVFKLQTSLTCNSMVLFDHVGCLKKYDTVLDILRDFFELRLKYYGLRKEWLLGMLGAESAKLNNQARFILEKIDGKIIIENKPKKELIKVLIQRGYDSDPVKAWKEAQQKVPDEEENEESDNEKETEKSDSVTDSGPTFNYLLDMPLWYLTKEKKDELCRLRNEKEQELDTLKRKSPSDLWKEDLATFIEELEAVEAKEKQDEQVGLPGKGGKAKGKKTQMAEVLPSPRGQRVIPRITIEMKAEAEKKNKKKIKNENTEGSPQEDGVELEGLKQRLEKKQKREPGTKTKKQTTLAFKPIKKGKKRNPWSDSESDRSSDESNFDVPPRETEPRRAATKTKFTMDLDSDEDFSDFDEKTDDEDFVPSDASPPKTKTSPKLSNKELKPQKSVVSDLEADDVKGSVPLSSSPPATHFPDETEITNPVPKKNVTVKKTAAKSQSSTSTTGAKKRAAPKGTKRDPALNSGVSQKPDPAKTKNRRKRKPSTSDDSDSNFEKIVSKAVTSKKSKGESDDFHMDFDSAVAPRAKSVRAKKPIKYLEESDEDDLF
Experimental: After incubation, the reaction was terminated by addition of 2 µl of 10% SDS. The reaction mixtures were treated with 50 µg/ml proteinase K for 30 min at 37°C and then DNA was extracted with CIA (chloroform:isoamyl alcohol, 24∶1). Samples were resolved by electrophoresis on a 1% agarose gel. After staining the electrophoresed gel with ethidium bromide, DNA bands were visualized by UV light and photographed on Gel Doc XR.
Supercoiled DNA relaxation assay for (A) topoisomerase 1 (Top 1) and (B) topoisomerase 2 (Top 2). Supercoiled pBR322 plasmid DNA was incubated at 37°C for 30 min with Top 1 enzyme (A) or Top 2α (B) in the presence of various concentrations of indicated compounds. DNA samples were separated by electrophoresis on a 1% agarose gel, stained with ethidium bromide, and visualized by UV light. (−), supercoiled DNA alone; oc, open circular; sc, supercoiled. […] HeLa cells were pretreated with 10 µM of STK295900 for 30 min and then incubated with the indicated concentrations of camptothecin for 1 h. Treated cells were lysed and subjected to immunoblot analyses with antibody against γ-H2A.X. β-actin was used as a loading control. […] HeLa cells were pretreated with STK295900 at 10, 20, 30, or 50 µM or ICRF-193 at 10 µM for 30 min. […] Treated cells were then lysed and subjected to immunoblot analyses with antibody against γ-H2A.X. β-actin was used as a loading control.

HeLa cells [3] = experiment: Flow cytometric analysis for cell cycle distribution; assay type: cell-based, human; details: 24 h, control around 25%
Experimental: For cell cycle analysis, HeLa cells were harvested following compound treatment for 24 h and stained with propidium iodide (PI) according to the instruction of Cycle Test Plus DNA Reagent kit from BD Biosciences (San Jose, CA). Flow cytometric analysis was performed using a FACSCalibur instrument (Becton Dickinson, San Jose, CA).
Figure 2 STK295900 induces G2 phase arrest in HeLa cells. (A) Flow cytometric analysis for cell cycle distribution. HeLa cells were treated with the indicated concentrations of STK295900 for 24 h. Treated cells were then stained with propidium iodide (PI) and processed for cell cycle analysis. The bar graph represents the mean percentage of each cell cycle phase ± SD from three independent experiments. * = p<0.05 versus the respective G1, S, or G2/M phase of DMSO-treated cells. (B) Mitotic index of STK295900. HeLa cells were treated with the indicated concentrations of STK295900 for 24 h. Cells were then stained with Hoechst 33342 and mitotic cells were counted. […] (C) Cell cycle related proteins expression. […] Treated cells were lysed and subjected to immunoblot analyses with antibodies against cyclin A, cyclin B1, phospho-Histone H3 (S10), and Histone H3. β-actin was used as a loading control.

MCF7 cells = experiment: Cell growth inhibition assay, MCF7; assay type: cell-based, human; details: Homo sapiens, MCF7, 96 h, growth up to 4 days
Source text: as §1, §2

HeLa cells [4] = experiment: Cell growth inhibition assay, HeLa; assay type: cell-based, human; details: Homo sapiens, 96 h, growth up to 4 days
Source text: as §1, §2

SMILES: Nc1ccc(-c2nc3ccc(-c4ccc5nc(-c6ccc(N)cc6)[nH]c5c4)cc3[nH]2)cc1 [STK295900, 4,4′-(3H,3′H-5,5′-bibenzimidazole-2,2′-diyl)dianiline]
- selectivity of toxicity, cancer versus non-cancer cells [1]: selective toxicity against cancer cells
- pIC50 (HepG2 cells; Table 1, HepG2, hepatocellular carcinoma): 6.77
- pIC50 (HepG2 cells; Table 2 comparison, HepG2): 6.85
- pIC50 (SNU-484 cells): 5.92
- mitotic index (HeLa cells [2]): no significant change in mitotic index
- pIC50 (MDA-MB-231 cells): 6.29
- Top 2α-mediated DNA relaxation (human topoisomerase 2α): inhibited Top 2α-mediated DNA relaxation
- G2/M population (HeLa cells [3]; 0.5 µM): about 35%
- G2/M population (HeLa cells [3]; 1 µM): ~55%
- G2/M population (HeLa cells [3]; 5 µM): ~65%
- pIC50 (MCF7 cells; Table 1, MCF7, breast adenocarcinoma): 7.22
- pIC50 (MCF7 cells; Table 2 comparison, MCF7): 7.40
- pIC50 (HeLa cells [4]; Table 1, cervical carcinoma): 6.28
- pIC50 (HeLa cells [4]; Table 2 comparison): 6.19
